Results on 3 compounds are retold here after patent publication US20170342499A1, “GENOMIC CLASSIFIER THAT PREDICTS RESPONSE TO MULTI-KINASE INHIBITOR TREATMENT INTRODUCTION” (Centre Léon-Bérard, priority 2014, published 2017).

For assay [1], the system named is CRC. Nature of the assay: Response to conventional chemotherapy versus SUMSCAN prediction in CRC patients. The assay is classed as in vivo, human. The following applies: CRC patients (n = 21).
For assay [2], the system named is pretreated metastatic colorectal cancer (mCRC). The conditions noted are these: cited from earlier work.
The test system of assay [3] is imatinib and sunitinib refractory gastrointestinal stromal tumors (GIST). The following applies: cited from earlier work.

For the compound `O=C1[O][Pt]2([NH][C@@H]3CCCC[C@H]3[NH]2)[O]C1=O` [Oxaliplatin], the results for the “patients resistant to the chemotherapy regimen, n (% of 21)” value in assay [1] (SUMSCAN Predicted Resistant), in assay [1] (SUMSCAN Predicted Sensitive) and in assay [1] (Total) were 2 (9.5%), 6 (28.6%) and 8 (38.1%), respectively. Also, the “patients sensitive to the chemotherapy regimen, n (% of 21)” value in assay [1] (SUMSCAN Predicted Resistant) was 7 (33.3%); in assay [1] (SUMSCAN Predicted Sensitive) it was 6 (28.6%); in assay [1] (Total), 13 (61.9%).
`CCc1c2c(nc3ccc(OC(=O)N4CCC(N5CCCCC5)CC4)cc13)-c1cc3c(c(=O)n1C2)COC(=O)[C@]3(O)CC` [Irinotecan]: the “patients resistant to the chemotherapy regimen, n (% of 21)” value in assay [1] (SUMSCAN Predicted Resistant) is 2 (9.5%); in assay [1] (SUMSCAN Predicted Sensitive) it was 3 (14.3%); in assay [1] (Total), 5 (23.8%). Besides, the figures for the “patients sensitive to the chemotherapy regimen, n (% of 21)” value in assay [1] (SUMSCAN Predicted Resistant), in assay [1] (SUMSCAN Predicted Sensitive) and in assay [1] (Total) were 7 (33.3%), 9 (42.9%) and 16 (76.2%), respectively.
As for `CNC(=O)c1cc(Oc2ccc(NC(=O)Nc3ccc(Cl)c(C(F)(F)F)c3)c(F)c2)ccn1` [Regorafenib], the “improvement in PFS” value in assay [2] is reported as 0.9 weeks; in assay [3] (imatinib and sunitinib refractory GIST), 4 months. Further, the “antitumor activity by nature of the KIT/or PDGFRA mutation” value in assay [3] (GIST) is on record as “observed at the same level regardless of the nature of the KIT/or PDGFRA mutation”.
